Experimental data from patent US9695155B2, “Herbicidal substituted pyrimidinyloxy benzene compounds” (E. I. DU PONT DE NEMOURS AND COMPANY, priority 2013, dated 2017).

How the values were obtained:
[1] = system: field violet; test: Test D preemergence; format: in vivo, Viola arvensis
Text: (§1) Seeds of plant species selected from bluegrass (annual bluegrass, Poa annua), blackgrass (Alopecurus myosuroides), canarygrass (littleseed canarygrass, Phalaris minor), chickweed (common chickweed, Stellaria media), galium (catchweed bedstraw, Galium aparine), bromegrass, downy (downy bromegrass, Bromus tectorum), field poppy (Papaver rhoeas), field violet (Viola arvensis), green foxtail (Setaria viridis), deadnettle (henbit deadnettle, Lamium amplexicaule), Italian ryegrass (Lolium multiflorum), kochia (Kochia scoparia), lambsquarters (Chenopodium album), oilseed rape (Brassica napus), pigweed (Amaranthus retroflexus), chamomile (scentless chamomile, Matricaria inodora), Russian thistle (Salsola kali), speedwell (bird's-eye speedwell, Veronica persica), spring barley (Hordeum vulgare), spring wheat (Triticum aestivum), wild buckwheat (Polygonum convolvulus), wild mustard (Sinapis arvensis), wild oat (Avena fatua), wild radish (Raphanus raphanistrum), windgrass (Apera spica-venti), winter barley (Hordeum vulgare), and winter wheat (Triticum aestivum) were planted into a silt loam soil and treated preemergence with test chemicals formulated in a non-phytotoxic solvent mixture which included a surfactant.
(§2) At the same time, these species were planted in pots containing Redi-Earth® planting medium (Scotts Company, 14111 Scottslawn Road, Marysville, Ohio 43041) comprising spaghnum peat moss, vermiculite, wetting agent and starter nutrients and treated with postemergence applications of the test chemicals formulated in the same manner. Plants ranged in height from 2 to 18 cm (1- to 4-leaf stage). Treated plants and controls were maintained in a controlled growth environment for 7 to 21 days after which time all species were compared to controls and visually evaluated. Plant response ratings, summarized in Table D, are based on a scale of 0 to 100 where 0 is no effect and 100 is complete control. A dash (-) response means no test result.

[2] = system: deadnettle; test: Test D preemergence; format: in vivo, Lamium amplexicaule
Text: as §1, §2

[3] = system: winter barley; test: Test D preemergence; format: in vivo, Hordeum vulgare
Text: as §1, §2

[4] = system: spring wheat; test: Test D preemergence; format: in vivo, Triticum aestivum
Text: as §1, §2

[5] = system: winter wheat; test: Test D preemergence; format: in vivo, Triticum aestivum
Text: as §1, §2

[6] = system: wild buckwheat; test: Test D preemergence; format: in vivo, Polygonum convolvulus
Text: as §1, §2

[7] = system: wild oat; test: Test D preemergence; format: in vivo, Avena fatua
Text: as §1, §2

[8] = system: galium; test: Test D postemergence; format: in vivo, Galium aparine
Text: as §1, §2

[9] = system: spring barley; test: Test D postemergence; format: in vivo, Hordeum vulgare
Text: as §1, §2

[10] = system: winter barley; test: Test D postemergence; format: in vivo, Hordeum vulgare
Text: as §1, §2

[11] = 16 g ai/ha, scale 0 (no effect) to 100 (complete control)
[12] = 31 g ai/ha, scale 0 (no effect) to 100 (complete control)
[13] = Postemergence, 62 g ai/ha, scale 0 to 100 (0 no effect, 100 complete control)
[14] = Postemergence, 31 g ai/ha, scale 0 to 100 (0 no effect, 100 complete control)
[15] = Postemergence, 125 g ai/ha, scale 0 to 100 (0 no effect, 100 complete control)
[16] = Postemergence, 250 g ai/ha, scale 0 to 100 (0 no effect, 100 complete control)
[17] = postemergence, 16 g ai/ha, scale 0 to 100, 0 no effect, 100 complete control

In the case of Clc1cnc(Oc2ccccc2-n2cc(Cl)cn2)nc1 [Compound 3], the “Plant response rating, Field Violet” value [1, 11] is reported as 40, the “Plant response rating, Field Violet” value ([1]; 31 g ai/ha, scale 0-100) is reported as 80 and the “Plant response rating, Field Violet” value ([1]; 62 g ai/ha, scale 0-100) is reported as 80. The “Plant response rating, Field Violet” value ([1]; 125 g ai/ha, scale 0-100) was 85, the “Plant response rating, Field Violet” value ([1]; 250 g ai/ha, scale 0-100) was 85 and the “Plant response rating, Deadnettle” value [2, 11] was 30. The “Plant response rating, Deadnettle” value ([2]; 31 g ai/ha, scale 0-100) was 30, the “Plant response rating, Deadnettle” value ([2]; 62 g ai/ha, scale 0-100) was 40 and the “Plant response rating, Deadnettle” value ([2]; 125 g ai/ha, scale 0-100) was 40. For the same compound, the “Plant response rating, Deadnettle” value ([2]; 250 g ai/ha, scale 0-100) was 50, the “Plant response rating, Barley, Winter” value [3, 11] was 0 and the “Plant response rating, Barley, Winter” value ([3]; 31 g ai/ha, scale 0-100) was 0. The “Plant response rating, Barley, Winter” value ([3]; 62 g ai/ha, scale 0-100) was 0, the “Plant response rating, Barley, Winter” value ([3]; 125 g ai/ha, scale 0-100) was 10 and the “Plant response rating, Barley, Winter” value ([3]; 250 g ai/ha, scale 0-100) was 20. The “Plant response rating, Wheat, Spring” value [4, 11] was 0, the “Plant response rating, Wheat, Spring” value [4, 12] was 0 and the “Plant response rating, Wheat, Spring” value ([4]; 62 g ai/ha, scale 0-100) was 0. For the same compound, the “Plant response rating, Wheat, Spring” value ([4]; 125 g ai/ha, scale 0-100) was 0, the “Plant response rating, Wheat, Spring” value ([4]; 250 g ai/ha, scale 0-100) was 0 and the “Plant response rating, Wheat, Winter” value [5, 11] was 0. The “Plant response rating, Wheat, Winter” value [5, 12] was 0, the “Plant response rating, Wheat, Winter” value ([5]; 62 g ai/ha, scale 0-100) was 0 and the “Plant response rating, Wheat, Winter” value ([5]; 125 g ai/ha, scale 0-100) was 0. For the same compound, the “Plant response rating, Wheat, Winter” value ([5]; 250 g ai/ha, scale 0-100) was 0, the “Plant response rating, Buckwheat, Wild” value [6, 11] was 0 and the “Plant response rating, Buckwheat, Wild” value ([6]; 31 g ai/ha, scale 0-100) was 0. The “Plant response rating, Buckwheat, Wild” value ([6]; 62 g ai/ha, scale 0-100) was 0, the “Plant response rating, Buckwheat, Wild” value ([6]; 125 g ai/ha, scale 0-100) was 60 and the “Plant response rating, Buckwheat, Wild” value ([6]; 250 g ai/ha, scale 0-100) was 100. For the same compound, the “Plant response rating, Oat, Wild” value [7, 11] was 0, the “Plant response rating, Oat, Wild” value ([7]; 31 g ai/ha, scale 0-100) was 0 and the “Plant response rating, Oat, Wild” value ([7]; 62 g ai/ha, scale 0-100) was 0. For the same compound, the “Plant response rating, Oat, Wild” value ([7]; 125 g ai/ha, scale 0-100) was 0, the “Plant response rating, Oat, Wild” value ([7]; 250 g ai/ha, scale 0-100) was 10 and the “Plant response rating, Galium” value ([8]; 16 g ai/ha, scale 0-100) was 40. For the same compound, the “Plant response rating, Galium” value ([8]; 31 g ai/ha, scale 0 to 100 (0 no effect, 100 complete control)) was 30, the “Plant response rating, Galium” value ([8]; 62 g ai/ha, scale 0 to 100 (0 no effect, 100 complete control)) was 40 and the “Plant response rating, Galium” value ([8]; 125 g ai/ha, scale 0 to 100 (0 no effect, 100 complete control)) was 45. The “Plant response rating, Galium” value ([8]; 250 g ai/ha, scale 0 to 100 (0 no effect, 100 complete control)) was 75, the “Plant response rating, Barley, Spring” value [9, 13] was 0 and the “Plant response rating, Barley, Spring” value [9, 14] was 0. The “Plant response rating, Barley, Spring” value [9, 15] was 0, the “Plant response rating, Barley, Spring” value [9, 16] was 10 and the “Plant response rating, Barley, Spring” value [9, 17] was 50. For the same compound, the “Plant response rating, Barley, Winter” value [10, 13] was 0, the “Plant response rating, Barley, Winter” value [10, 14] was 0 and the “Plant response rating, Barley, Winter” value [10, 15] was 0. For the same compound, the “Plant response rating, Barley, Winter” value [10, 16] was 0 and the “Plant response rating, Barley, Winter” value [10, 17] was 50.
With Fc1cccc(Oc2ncc(Cl)cn2)c1-n1cc(Br)cn1 [Compound 178, 2-[2-(4-bromo-1H-pyrazol-1-yl)-3-fluorophenoxy]-5-chloropyrimidine] the pest or weed control at 16 g/ha ([1]; Viola arvensis, pre-emergence, 16 g ai/ha, scale 0 (no effect) to 100 (complete control), read-out: Plant response rating, Field Violet) was 20%, the pest or weed control at 62 g/ha ([1]; Viola arvensis, pre-emergence, 62 g ai/ha, scale 0-100, read-out: Plant response rating, Field Violet) was 90% and the pest or weed control at 125 g/ha ([1]; Viola arvensis, pre-emergence, 125 g ai/ha, scale 0-100, read-out: Plant response rating, Field Violet) was 100%. The pest or weed control at 16 g/ha ([2]; Lamium amplexicaule, pre-emergence, 16 g ai/ha, scale 0 (no effect) to 100 (complete control), read-out: Plant response rating, Deadnettle) was 50%, the pest or weed control at 31 g/ha ([2]; Lamium amplexicaule, pre-emergence, 31 g ai/ha, scale 0-100, read-out: Plant response rating, Deadnettle) was 60% and the pest or weed control at 62 g/ha ([2]; Lamium amplexicaule, pre-emergence, 62 g ai/ha, scale 0-100, read-out: Plant response rating, Deadnettle) was 75%. It also gave a pest or weed control at 125 g/ha ([2]; Lamium amplexicaule, pre-emergence, 125 g ai/ha, scale 0-100, read-out: Plant response rating, Deadnettle) of 100%, a pest or weed control at 16 g/ha ([6]; Fallopia convolvulus, pre-emergence, 16 g ai/ha, scale 0 (no effect) to 100 (complete control), read-out: Plant response rating, Buckwheat, Wild) of 15% and a pest or weed control at 31 g/ha ([6]; Fallopia convolvulus, pre-emergence, 31 g ai/ha, scale 0-100, read-out: Plant response rating, Buckwheat, Wild) of 55%. The pest or weed control at 62 g/ha ([6]; Fallopia convolvulus, pre-emergence, 62 g ai/ha, scale 0-100, read-out: Plant response rating, Buckwheat, Wild) was 100%, the pest or weed control at 125 g/ha ([6]; Fallopia convolvulus, pre-emergence, 125 g ai/ha, scale 0-100, read-out: Plant response rating, Buckwheat, Wild) was 100% and the pest or weed control at 16 g/ha ([7]; Avena fatua, pre-emergence, 16 g ai/ha, scale 0 (no effect) to 100 (complete control), read-out: Plant response rating, Oat, Wild) was 0%. It also gave a pest or weed control at 31 g/ha ([7]; Avena fatua, pre-emergence, 31 g ai/ha, scale 0-100, read-out: Plant response rating, Oat, Wild) of 0%, a pest or weed control at 62 g/ha ([7]; Avena fatua, pre-emergence, 62 g ai/ha, scale 0-100, read-out: Plant response rating, Oat, Wild) of 10% and a pest or weed control at 125 g/ha ([7]; Avena fatua, pre-emergence, 125 g ai/ha, scale 0-100, read-out: Plant response rating, Oat, Wild) of 25%. It also gave a pest or weed control at 16 g/ha ([8]; Galium, post-emergence, 16 g ai/ha, scale 0-100, read-out: Plant response rating, Galium) of 75%, a pest or weed control at 31 g/ha ([8]; Galium, post-emergence, 31 g ai/ha, scale 0 to 100 (0 no effect, 100 complete control), read-out: Plant response rating, Galium) of 75% and a pest or weed control at 62 g/ha ([8]; Galium, post-emergence, 62 g ai/ha, scale 0 to 100 (0 no effect, 100 complete control), read-out: Plant response rating, Galium) of 75%. It also gave a pest or weed control at 125 g/ha ([8]; Galium, post-emergence, 125 g ai/ha, scale 0 to 100 (0 no effect, 100 complete control), read-out: Plant response rating, Galium) of 80%, a plant injury at 16 g/ha ([9]; Hordeum vulgare, post-emergence, Postemergence, 16 g ai/ha, scale 0 to 100 (0 no effect, 100 complete control), read-out: Plant response rating, Barley, Spring) of 0% and a plant injury at 31 g/ha ([9]; Hordeum vulgare, post-emergence, Postemergence, 31 g ai/ha, scale 0 to 100 (0 no effect, 100 complete control), read-out: Plant response rating, Barley, Spring) of 5%. The plant injury at 62 g/ha ([9]; Hordeum vulgare, post-emergence, Postemergence, 62 g ai/ha, scale 0 to 100 (0 no effect, 100 complete control), read-out: Plant response rating, Barley, Spring) was 5%, the plant injury at 125 g/ha ([9]; Hordeum vulgare, post-emergence, Postemergence, 125 g ai/ha, scale 0 to 100 (0 no effect, 100 complete control), read-out: Plant response rating, Barley, Spring) was 10% and the plant injury at 16 g/ha ([10]; Hordeum vulgare, post-emergence, Postemergence, 16 g ai/ha, scale 0 to 100 (0 no effect, 100 complete control), read-out: Plant response rating, Barley, Winter) was 0%. It also gave a plant injury at 31 g/ha ([10]; Hordeum vulgare, post-emergence, Postemergence, 31 g ai/ha, scale 0 to 100 (0 no effect, 100 complete control), read-out: Plant response rating, Barley, Winter) of 0%, a plant injury at 62 g/ha ([10]; Hordeum vulgare, post-emergence, Postemergence, 62 g ai/ha, scale 0 to 100 (0 no effect, 100 complete control), read-out: Plant response rating, Barley, Winter) of 5% and a plant injury at 125 g/ha ([10]; Hordeum vulgare, post-emergence, Postemergence, 125 g ai/ha, scale 0 to 100 (0 no effect, 100 complete control), read-out: Plant response rating, Barley, Winter) of 10%.
